# Experimental data taken from article PMC12040169 (PLOS Biology, 2025).
# Assay: in vitro
# Details: human, hela cells
row,SMILES,"viability at 28.5 h, 10 µM"
1,COc1ccc(C(=O)Oc2ccc(C(c3c(C)n[nH]c3O)c3c(C)n[nH]c3O)cc2)cc1 [CBK264740],112%

# Same assay, conditions: human, hela cells, % viability
row,SMILES,"viability at 28.5 h, 10 µM"
1,COC(=O)c1ccccc1NC(=O)CN(c1cccc(Cl)c1Cl)S(C)(=O)=O [CBK264612],115%
2,CCOC(=O)CN1C(=O)S/C(=C/c2cc(Cl)c(OCC(=O)O)c(Br)c2)C1=O [CBK264614],106%
3,COc1ccc(C(=O)C2=C(O)C(=O)N(CCN3CCNCC3)C2c2ccc(Cl)c(Cl)c2)cc1 (stereo not shown) [CBK264616],95.1%
4,O=[S+]([O-])(c1ccccc1)N1CCC(N(CCc2ccccc2)Cc2ccccc2)CC1 [CBK264617G],102%
5,O=C(NC(=S)Nc1cccc(Cl)c1)c1cncc(Br)c1 [CBK264618],94.1%
6,Cc1ccc(C(=O)C2=C(O)C(=O)N(Cc3cccnc3)C2c2cccc(Oc3ccccc3)c2)o1 (stereo not shown) [CBK264619],96.3%
7,O=C(CCCN1C(=O)/C(=C/c2ccc3c(c2)OCO3)SC1=S)Nc1ccc([N+](=O)[O-])cc1 [CBK264623],105%
8,COCCCNC(=O)COc1cc(C)ccc1C [CBK264625],88.4%
9,Cc1cccc(-n2nc3c4nonc4ccc3[n+]2[O-])c1C [CBK264626],93.6%
10,COc1ccc(CN2CCC(N3CCc4ccccc4C3)CC2)cc1OCc1ccccc1 [CBK264629G],91.4%
11,Cc1cc(=O)nc(SC(C)C(=O)O)[nH]1 (stereo not shown) [CBK264630],95.3%
12,CCN1CCN(C2CCN(Cc3ccccc3[N+](=O)[O-])CC2)CC1 [CBK264631G],98.1%
13,O=C(CN1C(=O)S/C(=C\c2ccc(OCc3ccccc3F)cc2)C1=O)c1ccc(Cl)cc1 [CBK264632],97.6%
14,COc1ccc(-n2nc3ccc(NC(=O)c4sc5ccccc5c4Cl)cc3n2)cc1Cl [CBK264633],94.5%
15,O=C(CN1C(=O)S/C(=C\c2ccc(OCc3ccccc3)cc2)C1=O)c1ccccc1 [CBK264636],95.1%
16,O=C1/C(=C/c2ccc(OCc3cccc([N+](=O)[O-])c3)cc2)SC(=S)N1CCc1ccccc1 [CBK264641],92.6%
17,CCOc1cc([N+](=O)[O-])cc(C=O)c1OC(C)C(=O)O (stereo not shown) [CBK264642],89.6%
18,CC(=O)Nc1ccc(S(=O)(=O)Nc2ccc(S(=O)(=O)Nc3ccc(C)c(C)c3)cc2)cc1 [CBK264643],101%
19,Cc1ccc(CN(CC(=O)N2CCCCC2)S(=O)(=O)c2ccc(C)cc2)cc1 [CBK264646],91.6%
20,Cc1ccc(C2=N/C(=C/c3ccc(OS(=O)(=O)c4ccc(C)c([N+](=O)[O-])c4)cc3)C(=O)O2)cc1 [CBK264647],99.1%
21,Nc1nnc(SCc2nc3ccccc3n2Cc2ccccc2)s1 [CBK264649],92.1%
22,Cc1ccccc1OCC(=O)Nc1ccc(CSc2ccccc2)cc1 [CBK264651],93%
23,CCc1cc(=O)oc2cc(OC(=O)c3ccco3)ccc12 [CBK264657],84.8%
24,CCc1ccc(OCC(=O)Nc2cccnc2)cc1 [CBK264658],96.6%
25,O=C(CN(Cc1ccccc1Cl)S(=O)(=O)c1ccc(Cl)cc1)NC1CCCCC1 [CBK264659],97.5%
26,COc1ccc(C2C(C(=O)c3ccc(Cl)cc3)=C(O)C(=O)N2CCN(C)C)cc1OC (stereo not shown) [CBK264660],103%
27,c1ccc(Oc2cccc(CN3CCC(N4CCN(c5ccccc5)CC4)CC3)c2)cc1 [CBK264662G],88%

row,SMILES,"viability at 28.5 h, 10 µM"
1,O=C(O)c1cc(-c2ccccc2)nc(Nc2nc3ccccc3s2)n1 [CBK264665],108%
2,COc1ccc(C(=O)C2=C(O)C(=O)N(CCN3CCNCC3)C2c2ccccc2F)cc1 (stereo not shown) [CBK264666],99.4%
3,O=C1/C(=C/c2ccc(OCc3cccc4ccccc34)cc2)SC(=S)N1Cc1cccnc1 [CBK264669],95.6%
4,Cc1cccc(NC(=O)CN2C(=O)S/C(=C\c3cc(C)n(-c4cc(C)ccn4)c3C)C2=O)c1 [CBK264671],93.4%
5,CC(Oc1ccc(Cl)cc1Cl)C(=O)O/N=C(\N)c1ccccn1 (stereo not shown) [CBK264673],100%
6,O=C1/C(=C/c2c(NCCc3ccccc3)nc3ccccn3c2=O)SC(=S)N1Cc1ccco1 [CBK264674],96.4%
7,Cc1ccc(S(=O)(=O)NCCSCc2ccc(Cl)c(Cl)c2)cc1[N+](=O)[O-] [CBK264675],99.9%
8,O=C(CCC(=O)c1ccc2c(c1)OCCO2)OCC(=O)c1ccc(F)cc1 [CBK264679],103%
9,Cc1cc(C)c(OCC(=O)Nc2cccc(-c3nc4cc(C(C)C)ccc4o3)c2)c([N+](=O)[O-])c1 [CBK264680],88.6%
10,COc1ccc(Br)cc1CN1CCC(N2CCN(c3ccccc3OC)CC2)CC1 [CBK264681G],88.4%
11,Cc1cccc(OCCn2c(SCCC(=O)O)nc3ccccc32)c1 [CBK264682],93.5%
12,CCOC(=O)CN1C(=O)S/C(=C/c2ccc(OCc3ccc(Br)cc3)cc2)C1=O [CBK264686],99.1%
13,Cc1cc(CSc2ccccc2)ccc1NC(=O)/C=C/c1cccc([N+](=O)[O-])c1 [CBK264687],111%
14,COc1ccccc1N1CCN(C2CCN(S(=O)(=O)c3ccc(NC(C)=O)cc3)CC2)CC1 [CBK264688],93.7%
15,CC(O)c1cccc(NC(=O)CCC(=O)O)c1 (stereo not shown) [CBK264691],94.1%
16,NCC(=O)Nc1ccc(Br)cc1C(=O)c1ccccc1Cl [CBK264692B],90.5%
17,Cc1cc(C)c2oc(-c3ccc(Cl)c(NC(=O)Cc4ccc(Cl)cc4)c3)nc2c1 [CBK264695],97.8%
18,O=C1/C(=C/c2c(NCCCn3ccnc3)nc3ccccn3c2=O)SC(=S)N1C1CCCCC1 [CBK264696],95.2%
19,O=S(=O)(NC1CCCCC1Oc1ccccc1)c1ccc(Cl)cc1 (stereo not shown) [CBK264697],114%
20,O=C(CN1C(=O)c2ccccc2C1=O)OCC(=O)N1c2ccccc2Sc2ccccc21 [CBK264701],91.8%
21,O=C1/C(=C/c2ccc(OCc3ccccc3Cl)c(Cl)c2)SC(=S)N1Cc1cccnc1 [CBK264702],92.4%
22,COc1cc(CN2CCC(N3CCCCCC3)CC2)ccc1OCc1ccccc1 [CBK264709G],90.6%
23,OCCN1CCN(C2CCN(Cc3ccccc3Cl)CC2)CC1 [CBK264710],90.1%
24,Nc1nonc1-c1nc2ccccc2n1CC(=O)NCc1ccccc1 [CBK264711],92.1%
25,O=C(O)c1cc(-c2ccc(/C=C3\SC(=S)N(Cc4cccnc4)C3=O)o2)ccc1Cl [CBK264712],112%
26,Cc1cc(C(=O)O)ccc1-c1ccc(/C=N/n2cnnc2)o1 [CBK264713],92.5%
27,CN(C)S(=O)(=O)c1ccc(C(=O)C2=C(O)C(=O)N(Cc3cccnc3)C2c2ccc(F)cc2)cc1 (stereo not shown) [CBK264715],94%

row,SMILES,"viability at 28.5 h, 10 µM"
1,C=CCOc1ccc(C(=O)C2=C(O)C(=O)N(Cc3cccnc3)C2c2ccc(Cl)cc2)c(C)c1 (stereo not shown) [CBK264716],99.6%
2,COc1ccc(C(=O)C2=C(O)C(=O)N(CCN3CCOCC3)C2c2ccc(Cl)cc2)cc1 (stereo not shown) [CBK264718],103%
3,O=C(COc1ccc(Cl)cc1Cl)Nc1cccc(NC(=O)c2ccccc2Cl)c1 [CBK264726],105%
4,CC(Cn1nnc2ccccc21)C(=O)O (stereo not shown) [CBK264727],117%
5,Clc1ccc(OCc2nc3ccccc3n2CCOc2ccccc2)c(Cl)c1 [CBK264728],94.8%
6,CN(C)CCN1C(=O)C(O)=C(C(=O)c2ccc(S(=O)(=O)N(C)C)cc2)C1c1cccnc1 (stereo not shown) [CBK264729],99.7%
7,c1ccc(CN2CCC(N3CCC(N4CCc5ccccc5C4)CC3)CC2)cc1 [CBK264730G],91%
8,CCOC(=O)CN1C(=O)S/C(=C/c2cc(C)n(-c3cc(C)ccn3)c2C)C1=O [CBK264731],95.2%
9,O=C(Nc1ccc(S(=O)(=O)Nc2nccs2)cc1)C1CC(=O)N(c2ccccc2)C1 (stereo not shown) [CBK264732],104%
10,O=C(NCCSCc1ccc(Cl)cc1Cl)c1ccc(Br)cc1 [CBK264733],114%
11,COc1ccccc1N1CCN(C2CCN(Cc3ccc([N+](=O)[O-])cc3)CC2)CC1 [CBK264734G],98.8%
12,O=C(O)CCc1ccc(-c2cccs2)n1NC(=O)c1ccc(Cl)cc1 [CBK264738],95.5%
13,Cc1ccc(N(CC(O)CNC23CC4CC(CC(C4)C2)C3)S(=O)(=O)c2ccccc2)cc1 (stereo not shown) [CBK264741],110%
14,O=C1CC(c2ccco2)CC(=O)C1=CNCCN1CCN(C(=O)Nc2ccc(Cl)cc2)CC1 (stereo not shown) [CBK264743],80.2%
15,Cc1cc(/C=C2/NC(=O)NC2=O)c(C)n1-c1ccc(S(N)(=O)=O)cc1 [CBK264747],106%
16,O=[N+]([O-])c1ccc(N2CCN(S(=O)(=O)c3ccc(Cl)cc3)CC2)cc1NCc1cccnc1 [CBK264749],123%
17,O=C(Cc1ccc(Cl)cc1)Nc1cccc(C(=O)Nc2ccccc2C(=O)O)c1 [CBK264750],107%
18,COc1cc(/C=C/C(=O)NCc2ccccn2)cc(OC)c1OC [CBK264752],91.5%
19,Cc1ccc(OCC(=O)O/N=C(\N)c2ccccn2)cc1C [CBK264755],101%
20,COc1ccc(NC2=C(NCCO)C(=O)c3ccccc3C2=O)cc1 [CBK264756],102%
21,O=C(CCC(=O)c1ccc(Cl)cc1)OCC(=O)c1cccc(I)c1 [CBK264760],89.9%
22,O=C(/C=C\c1ccccc1)CC1(O)C(=O)N(Cc2cccc3ccccc23)c2ccccc21 (stereo not shown) [CBK264761],96.7%
23,CC(=O)Nc1ccc(C(=O)Nc2ccc(S(=O)(=O)N3CCOCC3)cc2)cc1 [CBK264763],95.1%
24,C#CCOc1ccc(/C=N/N=C(\N)c2nonc2N)cc1OC [CBK264765],109%
25,CC(=O)Nc1ccc(NC(=O)/C=C/c2ccc(Cl)cc2)cc1 [CBK264766],116%
26,O=[N+]([O-])c1ccccc1S(=O)(=O)Nc1ccc(S(=O)(=O)Nc2ncccn2)cc1 [CBK264768],109%

# Same assay, conditions: human, hela cells, % viability, bulk resorufin, single well
row,SMILES,"viability at 28.5 h, 10 µM"
1,NCCCC(=O)OC1N=C(c2ccccc2Cl)c2cc(Br)ccc2NC1=O (stereo not shown) [CBK264689B],104%
